Measured values published in article PMC11079024, “Identification of a family of species-selective complex I inhibitors as potential anthelmintics” (Nature Communications, 2024).
Like-named read-outs stand apart in the source and are kept apart here.

Tests used:
[1] = molecular target: B. taurus (heart) complex I (Bos taurus, UniProt P03887+P17694+P42026); assay: biochemical; format: biochemical; details: for IC50: B. taurus heart mitochondria, read-out: B. taurus Complex I IC50; for activity at 0.0001 µM / activity at 0.0005 µM / activity at 0.001 µM / activity at 0.0025 µM / activity at 0.005 µM / activity at 0.013 µM / activity at 0.025 µM / activity at 0.063 µM / activity at 0.125 µM / activity at 0.313 µM / activity at 0.625 µM / activity at 1.5 µM / activity at 3 µM / activity at 15 µM / activity at 37.5 µM / activity at 75 µM: read-out: B. taurus mitochondrial complex I activity; for Log IC50 B. taurus complex I: log10 of IC50 in µM, B. taurus mitochondria
In short: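 Complex I activity followed as DCIP reduction (600 nm, 30 s reads, 15 min) with 80 μM NADH and 60 μM decylubiquinone in 25 mM KPi pH 7.5 containing 2 μM antimycin A and 2 mM KCN. Freeze-thawed mouse or bovine heart mitochondria at 0.2 mg/mL; initial-rate percent of solvent control, single-point 100 μM or dose-response.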

[2] = molecular target: C. elegans (N2) complex I (NADH:ubiquinone oxidoreductase) (Caenorhabditis elegans, UniProt P24887+Q93873+Q94360); assay: biochemical; format: biochemical; details: for activity at 0.0001 µM / activity at 0.0005 µM / activity at 0.001 µM / activity at 0.0025 µM / activity at 0.005 µM / activity at 0.013 µM / activity at 0.025 µM / activity at 0.063 µM / activity at 0.125 µM / activity at 0.313 µM / activity at 0.625 µM / activity at 1.5 µM / activity at 3 µM / activity at 15 µM / activity at 37.5 µM / activity at 75 µM: read-out: C. elegans mitochondrial complex I activity; for Log IC50 C. elegans complex I: log10 of IC50 in µM, C. elegans mitochondria
In short: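 Compounds were tested against freeze-thawed isolated mitochondria (0.2 mg/mL protein). NADH:decylubiquinone activity was monitored via DCIP absorbance at 600 nm, and the initial linear slope was normalised to solvent controls.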

[3] = in vitro complex I dose response on C. elegans mitochondria, average of at least two biological replicates, fit in R (DRC), read-out: IC50 C. elegans complex I
[4] = wild-type C. elegans mitochondria, read-out: C. elegans Complex I IC50
[5] = wild-type (N2) mitochondria, read-out: C. elegans Complex I IC50

B. taurus (heart) complex I, sequence (P03887 whole entry): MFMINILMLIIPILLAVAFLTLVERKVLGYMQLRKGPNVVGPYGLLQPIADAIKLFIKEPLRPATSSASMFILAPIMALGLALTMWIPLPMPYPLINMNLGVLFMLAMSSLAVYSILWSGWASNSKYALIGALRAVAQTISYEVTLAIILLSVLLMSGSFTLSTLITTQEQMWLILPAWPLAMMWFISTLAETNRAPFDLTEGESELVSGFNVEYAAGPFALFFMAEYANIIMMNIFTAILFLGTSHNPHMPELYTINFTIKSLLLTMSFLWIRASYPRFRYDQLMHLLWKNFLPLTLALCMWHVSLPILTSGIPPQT
B. taurus (heart) complex I, sequence (P17694 34-463): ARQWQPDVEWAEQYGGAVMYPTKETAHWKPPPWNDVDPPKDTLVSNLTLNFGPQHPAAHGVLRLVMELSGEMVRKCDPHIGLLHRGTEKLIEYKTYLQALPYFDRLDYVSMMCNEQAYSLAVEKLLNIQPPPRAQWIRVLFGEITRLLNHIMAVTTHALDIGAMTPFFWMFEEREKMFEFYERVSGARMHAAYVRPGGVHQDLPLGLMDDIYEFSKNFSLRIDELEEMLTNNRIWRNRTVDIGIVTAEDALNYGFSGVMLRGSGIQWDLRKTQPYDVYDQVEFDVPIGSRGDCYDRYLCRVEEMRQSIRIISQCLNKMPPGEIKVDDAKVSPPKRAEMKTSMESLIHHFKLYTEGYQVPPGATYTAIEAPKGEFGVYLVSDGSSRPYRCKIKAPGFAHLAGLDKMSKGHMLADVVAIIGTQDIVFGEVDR
B. taurus (heart) complex I, sequence (P42026 38-216): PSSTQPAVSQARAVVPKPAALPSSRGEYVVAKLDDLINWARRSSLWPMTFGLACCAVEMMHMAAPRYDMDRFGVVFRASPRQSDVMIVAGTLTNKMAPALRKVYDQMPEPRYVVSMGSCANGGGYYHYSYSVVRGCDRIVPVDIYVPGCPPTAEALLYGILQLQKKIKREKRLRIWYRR
C. elegans (N2) complex I (NADH:ubiquinone oxidoreductase), sequence (Q94360 17-199): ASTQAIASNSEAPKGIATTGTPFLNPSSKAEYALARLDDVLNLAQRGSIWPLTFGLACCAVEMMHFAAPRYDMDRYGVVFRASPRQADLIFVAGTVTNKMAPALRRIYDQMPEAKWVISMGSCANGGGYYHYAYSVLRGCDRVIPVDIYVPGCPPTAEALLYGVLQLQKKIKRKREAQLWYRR
C. elegans (N2) complex I (NADH:ubiquinone oxidoreductase), sequence (P24887 whole entry): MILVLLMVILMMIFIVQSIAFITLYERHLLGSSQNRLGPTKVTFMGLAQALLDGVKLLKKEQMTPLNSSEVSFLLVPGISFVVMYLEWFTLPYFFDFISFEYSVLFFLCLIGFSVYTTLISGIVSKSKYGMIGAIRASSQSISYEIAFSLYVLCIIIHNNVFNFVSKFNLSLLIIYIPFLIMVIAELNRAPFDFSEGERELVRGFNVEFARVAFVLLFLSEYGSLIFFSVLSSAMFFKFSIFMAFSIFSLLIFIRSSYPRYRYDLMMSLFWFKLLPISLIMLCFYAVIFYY
C. elegans (N2) complex I (NADH:ubiquinone oxidoreductase), sequence (Q93873 31-482): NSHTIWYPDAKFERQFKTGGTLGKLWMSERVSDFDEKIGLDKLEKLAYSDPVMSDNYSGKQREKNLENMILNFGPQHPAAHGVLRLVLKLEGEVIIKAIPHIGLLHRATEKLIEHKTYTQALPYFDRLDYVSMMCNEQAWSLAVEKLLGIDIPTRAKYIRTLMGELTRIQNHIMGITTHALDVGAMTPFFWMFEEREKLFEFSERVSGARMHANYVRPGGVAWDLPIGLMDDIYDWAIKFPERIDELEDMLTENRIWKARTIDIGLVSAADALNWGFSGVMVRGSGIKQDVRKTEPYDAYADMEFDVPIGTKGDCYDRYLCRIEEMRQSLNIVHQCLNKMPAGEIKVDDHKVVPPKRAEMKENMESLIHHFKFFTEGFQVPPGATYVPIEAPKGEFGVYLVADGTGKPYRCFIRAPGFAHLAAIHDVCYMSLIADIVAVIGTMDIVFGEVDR

Which results are given for Cc1nc2ccccc2n1CCOc1ccccc1 [Compound 5550112]?
IC50 [1]: 9.86 µM; activity at 0.0001 µM [1]: 101%; activity at 0.0005 µM [1]: 97.8%; activity at 0.001 µM [1]: 105%; activity at 0.0025 µM [1]: 102%; activity at 0.005 µM [1]: 103%; activity at 0.013 µM [1]: 98.3%; activity at 0.025 µM [1]: 99.2%; activity at 0.063 µM [1]: 91.8%; activity at 0.125 µM [1]: 95.1%; activity at 0.313 µM [1]: 92.8%; activity at 0.625 µM [1]: 96.9%; activity at 1.5 µM [1]: 85.2%; activity at 3 µM [1]: 74.2%; activity at 15 µM [1]: 36.6%; activity at 37.5 µM [1]: 16.7%; activity at 75 µM [1]: 5.1%; Log IC50 B. taurus complex I [1]: 0.99 µM; activity at 0.0001 µM [2]: 88.8%; activity at 0.0005 µM [2]: 84.9%; activity at 0.001 µM [2]: 88.8%; activity at 0.0025 µM [2]: 93.8%; activity at 0.005 µM [2]: 86.7%; activity at 0.013 µM [2]: 87.2%; activity at 0.025 µM [2]: 83.3%; activity at 0.063 µM [2]: 78.1%; activity at 0.125 µM [2]: 80.5%; activity at 0.313 µM [2]: 78%; activity at 0.625 µM [2]: 89.4%; activity at 1.5 µM [2]: 71.3%; activity at 3 µM [2]: 60.5%; activity at 15 µM [2]: 24.9%; activity at 37.5 µM [2]: 11.1%; activity at 75 µM [2]: 5.83%; IC50 [2, 3]: 5.79 µM; Log IC50 C. elegans complex I [2]: 0.76 µM; IC50 [2, 4]: 5.79 µM

With Clc1ccc(Cn2cnc3ccccc32)cc1Cl [Compound 5571325] as the compound, how does the IC50 [1] read?
The IC50 was 11.5 µM.

What about the activity at 0.0001 µM [1] of the same compound?
Its activity at 0.0001 µM is 97.2%.

And the activity at 0.0005 µM [1]?
Its activity at 0.0005 µM is 100%.

What about the activity at 0.001 µM [1] of the same compound?
The activity at 0.001 µM was 100%.

What about the activity at 0.0025 µM [1] of the same compound?
The activity at 0.0025 µM was 99.4%.

And the activity at 0.005 µM [1]?
Its activity at 0.005 µM is 97.3%.

And the activity at 0.013 µM [1]?
The activity at 0.013 µM was 88.2%.

And the activity at 0.025 µM [1]?
Its activity at 0.025 µM is 96.9%.

And the activity at 0.063 µM [1]?
The activity at 0.063 µM was 95.3%.

And the activity at 0.125 µM [1]?
Its activity at 0.125 µM is 96%.

And the activity at 0.313 µM [1]?
The activity at 0.313 µM was 92.8%.

And the activity at 0.625 µM [1]?
The activity at 0.625 µM was 96.3%.

What about the activity at 1.5 µM [1] of the same compound?
The activity at 1.5 µM was 89.7%.

And the activity at 3 µM [1]?
The activity at 3 µM was 83.9%.

And the activity at 15 µM [1]?
Its activity at 15 µM is 36%.

What about the activity at 37.5 µM [1] of the same compound?
Its activity at 37.5 µM is 5.23%.

And the activity at 75 µM [1]?
Its activity at 75 µM is 1.54%.

And the “Log IC50 B. taurus complex I” value [1]?
Its value is 1.06 µM.

And the activity at 0.0001 µM [2]?
Its activity at 0.0001 µM is 90.4%.

What about the activity at 0.0005 µM [2] of the same compound?
The activity at 0.0005 µM was 92.7%.

And the activity at 0.001 µM [2]?
Its activity at 0.001 µM is 95.2%.

What about the activity at 0.0025 µM [2] of the same compound?
The activity at 0.0025 µM was 95.4%.

What about the activity at 0.005 µM [2] of the same compound?
Its activity at 0.005 µM is 92.8%.

And the activity at 0.013 µM [2]?
Its activity at 0.013 µM is 92.4%.

What about the activity at 0.025 µM [2] of the same compound?
The activity at 0.025 µM was 92.1%.

What about the activity at 0.063 µM [2] of the same compound?
Its activity at 0.063 µM is 90.9%.

And the activity at 0.125 µM [2]?
Its activity at 0.125 µM is 87.7%.

What about the activity at 0.313 µM [2] of the same compound?
The activity at 0.313 µM was 83.6%.

And the activity at 0.625 µM [2]?
The activity at 0.625 µM was 83%.

And the activity at 1.5 µM [2]?
Its activity at 1.5 µM is 69.7%.

And the activity at 3 µM [2]?
Its activity at 3 µM is 57.2%.

What about the activity at 15 µM [2] of the same compound?
The activity at 15 µM was 19%.

What about the activity at 37.5 µM [2] of the same compound?
Its activity at 37.5 µM is 8.47%.

What about the activity at 75 µM [2] of the same compound?
Its activity at 75 µM is 7.02%.

And the IC50 [2, 3]?
Its IC50 is 4.38 µM.

And the “Log IC50 C. elegans complex I” value [2]?
The value was 0.64 µM.

What about the IC50 [2, 5] of the same compound?
The IC50 was 4.38 µM.

What about the IC50 [2, 4] of the same compound?
The IC50 was 4.38 µM.

Which results are given for CC(C)Cc1ccc(C(C)c2nc3ccccc3n2C(C)C)cc1 (stereo not drawn) [STK951903]?
IC50 [1]: 14.7 µM; Log IC50 B. taurus complex I [1]: 1.17 µM; IC50 [2, 3]: 4.2 µM; Log IC50 C. elegans complex I [2]: 0.62 µM; IC50 [2, 5]: 4.2 µM; IC50 [2, 4]: 4.2 µM
